This note sets out measurements from US5250683A, “Certain substituted taxanes and pharmaceutical compositions containing them” (Florida State University, priority 1992, dated 1993).

For this assay, the system named is tubulin. Briefly: Tubulin binding assay (Tubulin Assay), method of Parness et al. As to conditions: compared to taxol and taxotere.
On to `CC(=O)O[C@H]1C(=O)[C@@]2(C)[C@H]([C@H](OC(=O)c3ccccc3)[C@]3(O)C[C@H](OC(=O)[C@H](O)[C@@H](NC(=O)c4ccc(Cl)cc4)c4ccccc4)C(C)=C1C3(C)C)[C@]1(OC(C)=O)CO[C@@H]1C[C@@H]2O` [Example 10, N-debenzoyl-N-(4-chlorobenzoyl) taxol], for which the “Tubulin Assay Init. Peak” value is recorded as 75 and the “Tubulin Assay Rel. Rate” value is given as 90.
The matching figures for `CC(=O)O[C@H]1C(=O)[C@@]2(C)[C@H]([C@H](OC(=O)c3ccccc3)[C@]3(O)C[C@H](OC(=O)[C@H](O)[C@@H](NC(=O)c4ccc(Br)cc4)c4ccccc4)C(C)=C1C3(C)C)[C@]1(OC(C)=O)CO[C@@H]1C[C@@H]2O` [Example 11, N-debenzoyl-N-(4-bromobenzoyl) taxol]: 67 and 88.
On the same counts, the results for `CC(=O)O[C@H]1C(=O)[C@@]2(C)[C@H]([C@H](OC(=O)c3ccccc3)[C@]3(O)C[C@H](OC(=O)[C@H](O)[C@@H](NC(=O)c4ccc(C)cc4)c4ccccc4)C(C)=C1C3(C)C)[C@]1(OC(C)=O)CO[C@@H]1C[C@@H]2O` [Example 12, N-debenzoyl-N-(4-methylbenzoyl) taxol] are 107 and 110.
On the same counts, the results for `CC(=O)O[C@H]1C(=O)[C@@]2(C)[C@H]([C@H](OC(=O)c3ccccc3)[C@]3(O)C[C@H](OC(=O)[C@H](O)[C@@H](NC(=O)c4ccc(C(C)(C)C)cc4)c4ccccc4)C(C)=C1C3(C)C)[C@]1(OC(C)=O)CO[C@@H]1C[C@@H]2O` [Example 13, N-debenzoyl-N-(4-t-butylbenzoyl) taxol] are 67 and 85.
In the case of `COc1ccc(C(=O)N[C@@H](c2ccccc2)[C@@H](O)C(=O)O[C@H]2C[C@@]3(O)[C@@H](OC(=O)c4ccccc4)[C@@H]4[C@]5(OC(C)=O)CO[C@@H]5C[C@H](O)[C@@]4(C)C(=O)[C@H](OC(C)=O)C(=C2C)C3(C)C)cc1` [Example 14, N-debenzoyl-N-(4-methoxybenzoyl) taxol], the “Tubulin Assay Init. Peak” value is reported as 95 and the “Tubulin Assay Rel. Rate” value is recorded as 99.
The matching figures for `CC(=O)O[C@H]1C(=O)[C@@]2(C)[C@H]([C@H](OC(=O)c3ccccc3)[C@]3(O)C[C@H](OC(=O)[C@H](O)[C@@H](NC(=O)c4ccc(F)cc4)c4ccc(F)cc4)C(C)=C1C3(C)C)[C@]1(OC(C)=O)CO[C@@H]1C[C@@H]2O` [Example 15, N-debenzoyl-N-(4-fluorobenzoyl)-3'-desphenyl-3'-(4-fluorophenyl) taxol]: 89 and 98.
On the same counts, the results for `CC(=O)O[C@H]1C(=O)[C@@]2(C)[C@H]([C@H](OC(=O)c3ccccc3)[C@]3(O)C[C@H](OC(=O)[C@H](O)[C@@H](NC(=O)c4ccc(F)cc4)c4ccccc4)C(C)=C1C3(C)C)[C@]1(OC(C)=O)CO[C@@H]1C[C@@H]2O` [Example 16, N-debenzoyl-N-(4-fluorobenzoyl) taxol] are 66 and 90.
On the same counts, the results for `CC(=O)O[C@H]1C(=O)[C@@]2(C)[C@H]([C@H](OC(=O)c3ccccc3)[C@]3(O)C[C@H](OC(=O)[C@H](O)[C@@H](NC(=O)c4ccc(C)cc4)c4ccc(Cl)cc4)C(C)=C1C3(C)C)[C@]1(OC(C)=O)CO[C@@H]1C[C@@H]2O` [Example 17, N-debenzoyl-N-(4-methylbenzoyl)-3'-desphenyl-3'-(4-chlorophenyl) taxol] are 101 and 98.
For the compound `CC(=O)O[C@H]1C(=O)[C@@]2(C)[C@H]([C@H](OC(=O)c3ccccc3)[C@]3(O)C[C@H](OC(=O)[C@H](O)[C@@H](NC(=O)c4ccc(Cl)cc4)c4ccc(F)cc4)C(C)=C1C3(C)C)[C@]1(OC(C)=O)CO[C@@H]1C[C@@H]2O` [Example 18, N-debenzoyl-N-(4-chlorobenzoyl)-3'-desphenyl-3'-(4-fluorophenyl) taxol], the “Tubulin Assay Init. Peak” value is on record as 109 and the “Tubulin Assay Rel. Rate” value worked out at 92.
